Results published in PubChem BioAssay (NCI).
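The compound was tested at five concentrations on cells cultured in 96-well plates, with a 48-hour exposure period. The concentration for full growth arrest is given as TGI.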

Experiments:
Test in all cases: NCI tumour cell line growth inhibition, 48 h
[1] = tested on: 786-0 renal
[2] = tested on: A498 renal
[3] = tested on: A549 NSCLC
[4] = tested on: ACHN renal
[5] = tested on: BT-549 breast
[6] = tested on: CAKI-1 renal
[7] = tested on: CCRF-CEM leukemia
[8] = tested on: COLO 205 colon
[9] = tested on: DU-145 prostate
[10] = tested on: EKVX NSCLC
[11] = tested on: HCC-2998 colon
[12] = tested on: HCT-116 colon
[13] = tested on: HCT-15 colon
[14] = tested on: HL-60(TB) leukemia
[15] = tested on: HOP-62 NSCLC
[16] = tested on: HOP-92 NSCLC
[17] = tested on: HS 578T breast
[18] = tested on: HT29 colon
[19] = tested on: IGROV1 ovarian
[20] = tested on: K-562 leukemia
[21] = tested on: KM12 colon
[22] = tested on: LOX IMVI melanoma
[23] = tested on: M14 melanoma
[24] = tested on: MALME-3M melanoma
[25] = tested on: MCF7 breast
[26] = tested on: MDA-MB-231 breast
[27] = tested on: MDA-MB-435
[28] = tested on: MDA-N
[29] = tested on: MOLT-4 leukemia
[30] = tested on: NCI-H226 lung
[31] = tested on: NCI-H23 lung
[32] = tested on: NCI-H460 lung
[33] = tested on: NCI-H522 lung
[34] = tested on: NCI/ADR-RES ovarian
[35] = tested on: OVCAR-3 ovarian
[36] = tested on: OVCAR-4 ovarian
[37] = tested on: OVCAR-5 ovarian
[38] = tested on: OVCAR-8 ovarian
[39] = tested on: PC-3 prostate
[40] = tested on: RPMI-8226 leukemia
[41] = tested on: RXF 393 renal
[42] = tested on: SF-268 CNS
[43] = tested on: SF-295 CNS
[44] = tested on: SF-539 CNS
[45] = tested on: SK-MEL-2 melanoma
[46] = tested on: SK-MEL-28 melanoma
[47] = tested on: SK-MEL-5 melanoma
[48] = tested on: SK-OV-3 ovarian
[49] = tested on: SN12C renal
[50] = tested on: SNB-19 CNS
[51] = tested on: SNB-75 CNS
[52] = tested on: SW-620 colon
[53] = tested on: T-47D breast
[54] = tested on: TK-10 renal
[55] = tested on: U251 CNS
[56] = tested on: UACC-257 melanoma
[57] = tested on: UACC-62 melanoma
[58] = tested on: UO-31 renal
[59] = tested on: SR leukemia

## Cc1ccc2ccc(O)cc2c1
[1]
  TGI: > 100 µM
[2]
  TGI: > 100 µM
[3]
  TGI: > 100 µM
[4]
  TGI: > 100 µM
[5]
  TGI: 99.4 µM
[6]
  TGI: > 100 µM
[7]
  TGI: 61.8 µM
[8]
  TGI: > 100 µM
[9]
  TGI: > 100 µM
[10]
  TGI: > 100 µM
[11]
  TGI: 46.8 µM
[12]
  TGI: > 100 µM
[13]
  TGI: > 100 µM
[14]
  TGI: 52.8 µM
[15]
  TGI: > 100 µM
[16]
  TGI: 80.9 µM
[17]
  TGI: > 100 µM
[18]
  TGI: > 100 µM
[19]
  TGI: 57.3 µM
[20]
  TGI: 47.1 µM
[21]
  TGI: > 100 µM
[22]
  TGI: > 100 µM
[23]
  TGI: > 100 µM
[24]
  TGI: > 100 µM
[25]
  TGI: > 100 µM
[26]
  TGI: > 100 µM
[27]
  TGI: 46.8 µM
[28]
  TGI: 42.6 µM
[29]
  TGI: 55.9 µM
[30]
  TGI: > 100 µM
[31]
  TGI: > 100 µM
[32]
  TGI: > 100 µM
[33]
  TGI: 42.4 µM
[34]
  TGI: 60.4 µM
[35]
  TGI: 28.7 µM
[36]
  TGI: 52 µM
[37]
  TGI: > 100 µM
[38]
  TGI: 60.9 µM
[39]
  TGI: 52.9 µM
[40]
  TGI: 66.4 µM
[41]
  TGI: > 100 µM
[42]
  TGI: > 100 µM
[43]
  TGI: > 100 µM
[44]
  TGI: > 100 µM
[45]
  TGI: > 100 µM
[46]
  TGI: > 100 µM
[47]
  TGI: > 100 µM
[48]
  TGI: > 100 µM
[49]
  TGI: > 100 µM
[50]
  TGI: > 100 µM
[51]
  TGI: > 100 µM
[52]
  TGI: > 100 µM
[53]
  TGI: > 100 µM
[54]
  TGI: > 100 µM
[55]
  TGI: 48.8 µM
[56]
  TGI: > 100 µM
[57]
  TGI: > 100 µM
[58]
  TGI: 67.1 µM

## CCCCCC(=O)n1[nH]c(=O)n(-c2ccc(OC)cc2)c1=O
[1]
  TGI: > 100 µM
[3]
  TGI: > 100 µM
[4]
  TGI: > 100 µM
[5]
  TGI: > 100 µM
[6]
  TGI: > 100 µM
[7]
  TGI: > 100 µM
[8]
  TGI: > 100 µM
[9]
  TGI: > 100 µM
[10]
  TGI: > 100 µM
[11]
  TGI: > 100 µM
[12]
  TGI: > 100 µM
[13]
  TGI: > 100 µM
[14]
  TGI: > 100 µM
[15]
  TGI: > 100 µM
[17]
  TGI: > 100 µM
[18]
  TGI: > 100 µM
[19]
  TGI: > 100 µM
[20]
  TGI: > 100 µM
[21]
  TGI: > 100 µM
[22]
  TGI: > 100 µM
[23]
  TGI: > 100 µM
[24]
  TGI: > 100 µM
[25]
  TGI: > 100 µM
[26]
  TGI: > 100 µM
[27]
  TGI: > 100 µM
[28]
  TGI: > 100 µM
[29]
  TGI: > 100 µM
[30]
  TGI: > 100 µM
[31]
  TGI: > 100 µM
[32]
  TGI: > 100 µM
[33]
  TGI: > 100 µM
[34]
  TGI: > 100 µM
[35]
  TGI: > 100 µM
[36]
  TGI: > 100 µM
[37]
  TGI: > 100 µM
[38]
  TGI: > 100 µM
[39]
  TGI: > 100 µM
[40]
  TGI: > 100 µM
[41]
  TGI: > 100 µM
[42]
  TGI: > 100 µM
[43]
  TGI: > 100 µM
[45]
  TGI: > 100 µM
[46]
  TGI: > 100 µM
[47]
  TGI: > 100 µM
[48]
  TGI: > 100 µM
[49]
  TGI: > 100 µM
[50]
  TGI: > 100 µM
[51]
  TGI: > 100 µM
[59]
  TGI: > 100 µM
[52]
  TGI: > 100 µM
[53]
  TGI: > 100 µM
[54]
  TGI: > 100 µM
[55]
  TGI: > 100 µM
[56]
  TGI: > 100 µM
[57]
  TGI: > 100 µM
[58]
  TGI: > 100 µM
